According to US10988533B2, “Anti-pre-BCR antagonists and methods” (STC.UNM, priority 2015, dated 2021):

What was measured:
[1] = system: BCL6 levels in patient #280 cells; test: Western blotting of BCL6 levels in patient #280 cells; assay type: cell-based, human; settings: 24 hours
Protocol: FIG. 14. Data showing that pre-BCR signaling contributes to survival of some BCP-ALL blasts. Data are shown for patient #280. A) Increase in apoptosis (Annexin labeling) and loss of cell viability (7AAD labeling) after prolonged incubation with dasatinib (10 μM) alone or in combination with vincristine over doses of 0.1 ng/ml to 100 ng/ml. B) Increase in apoptosis after 24-hour incubation of #280 patient cells with α-VpreB Fab (5 μM) alone or in combination with low dose vincristine (10 ng/ml).
After stated incubation +/− inhibitors or crosslinking agents, cells were washed with ice-cold PBS and held for 15 minutes on ice in Tris-based lysis buffer, with 1% NP-40 and protease and phosphatase inhibitors (ThermoFisher Scientific, Waltham, Mass.). For effects of inhibitors on BCL6 expression, treatments were carried out for 24 hours. Lysates were clarified by centrifugation at 14,000×g for 10 minutes at 4° C., then added to Laemmli's Reducing buffer. Proteins were separated on SDS-polyacrylamide and transferred to nitrocellulose membranes. […]

[2] = system: BCL6 expression in 697 cells; test: Western blotting of BCL6 expression in 697 cells; assay type: cell-based, human; settings: overnight (24 hours) treatment
Protocol: (§1) Results in FIG. 8 evaluate the ability of anti-VpreB Fabs, as well as inhibitors directed at pre-BCR downstream signaling partners Lyn, Syk and SHIP1 (INPP5D), to block tonic signaling from the pre-BCR.
(§2) After stated incubation +/− inhibitors or crosslinking agents, cells were washed with ice-cold PBS and held for 15 minutes on ice in Tris-based lysis buffer, with 1% NP-40 and protease and phosphatase inhibitors (ThermoFisher Scientific, Waltham, Mass.). For effects of inhibitors on BCL6 expression, treatments were carried out for 24 hours. Lysates were clarified by centrifugation at 14,000×g for 10 minutes at 4° C., then added to Laemmli's Reducing buffer. Proteins were separated on SDS-polyacrylamide and transferred to nitrocellulose membranes. After blocking with TBST (Sigma-Aldrich, St. Louis, Mo.) with 5% BSA (Sigma-Aldrich, St. Louis, Mo.), blots were probed with antibodies specific to pCD79a (Tyr 182) (Cell Signaling Technology, Inc., Danvers, Mass.), pSyk (Tyr348) (Novus Biologicals LLC, Littleton, Colo.), pSyk (Tyr 352) (Cell Signaling Technology, Inc., Danvers, Mass.) or BCL6 (Santa Cruz Biotechnology, Inc., Dallas, Tex.). Antibodies to β-Actin (Sigma-Aldrich, St. Louis, Mo.) were used as loading controls.

[3] = system: pre-BCR signaling in 697 cells; test: Western blotting of pre-BCR tonic signaling (phospho-CD79a, phospho-Syk) with pervanadate; assay type: cell-based, human; settings: for accumulation of phospho-Syk (Syk phosphorylation): in the presence of pervanadate, 30-minute treatment
Protocol: as §1, §2
BCP-ALL cells were treated with pervanadate solution as previously described (Imbert et al., 1994, Biochem J297 (Pt 1):163-173; Smrz et al., 2008, J Biol Chem 283:10904-10918). Data in FIG. 8 are reported using a linear range normalization from 0 to 1.0, whereby tonic without pervanadate treatment response was set to 0 and tonic pervanadate treatment was set to 1.0: […]

697 cells = test: flow cytometry apoptosis assay (Annexin-V / 7-AAD), 697 cells; assay type: cell-based, human; settings: for apoptosis in cells treated with vincristine over a range of doses: inhibitor in combination with vincristine
Protocol: Since blocking pre-BCR pro-survival signaling may be advantageous for chemo-sensitization, one can compare apoptosis alone or in combination with a sub-lethal dose of a chemotherapeutic such as, for example, vincristine or daunorubicin.
Curves were fit using sigmoidal dose-response curve using MATLAB curve fitting toolbox (The MathWorks, Inc., Natick, Mass.).
Leukemia cell apoptosis was measured based upon binding to Annexin-V-FITC (BioLegend, Inc., San Diego, Calif.) and loss of cell viability measured by 7-AAD labeling (BioLegend, Inc., San Diego, Calif.), according to manufacturer's procedures. For receptor-binding experiments, cells were incubated under saturating conditions for 1.5 hours on ice in PBS with anti-CD79b-APC antibody (BioLegend, Inc., San Diego, Calif.) or anti-VpreB-PE antibody (BioLegend, Inc., San Diego, Calif.). […] (Bangs Laboratories, Inc., Fishers, Ind.) beads with anti-mouse Fc antibody according to manufacturer's instruction. Dissociation constants were estimated with nonlinear regression analysis under KD controlled conditions as described (Drake, A. W., and S. L. Klakamp, 2007, J Immunol Methods 318:147-152). All flow cytometry data collection was conducted on the […] platform (IntelliCyt Corp., Albuquerque, N. Mex.; Edwards et al., 2009, Methods Mol Biol 486:151-165) and analyzed with the FLOWJO Software Suite (FlowJo, LLC, Ashland, Oreg.).

pre-BCR on 697 cells [4] = biological target: T1, pre-BCR on 697 cells (Homo sapiens, UniProt P12018); test: Single Particle Tracking of pre-BCR diffusion on 697 cells; assay type: cell-based; settings: Fab 1 μM, galectin-1 10 μM; for overall diffusion (mobility) of pre-BCR: relative to tonic signaling, inhibitors 1 μM
T1 construct: endogenous in cells; host or cells: 697 (BCP-ALL cell line)
T1 sequence (P12018 20-145): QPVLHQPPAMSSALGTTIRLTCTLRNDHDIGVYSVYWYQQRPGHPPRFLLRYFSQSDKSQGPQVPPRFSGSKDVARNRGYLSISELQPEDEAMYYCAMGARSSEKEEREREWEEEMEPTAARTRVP
Protocol: Data are reported as changed in ensemble diffusion coefficients (MSD) for pre-BCR plus and minus saturating levels of anti-VpreB1 Fabs (1 μM). In these experiments, Fabs were added to 697 cells for 15 minutes at 37° C. prior to performing Single Particle Tracking (SPT).
Suspension cultures of BCP-ALL cell lines (697, Nalm6) were grown in RPMI 1640 with phenol red (Sigma-Aldrich, St. Louis, Mo.), with 10% (v/v) HI FBS, 1% Penicillin/Streptomycin (Gibco, Gaithersburg, Md.), and L-Glutamine 2 mM. Patient samples were cultured in IMDM, GlutaMAX medium (Gibco, Gaithersburg, Md.) supplemented with 20% (v/v) HI FBS, 1% penicillin/streptomycin, 1× insulin, transferrin and selenium (Gibco, Gaithersburg, Md.), 1 mM sodium pyruvate (Gibco, Gaithersburg, Md.), and 55 μM 2-Mercaptoethanol (Gibco, Gaithersburg, Md.). Prior to experiments, cells were washed twice with Tyrode's solution (Sigma-Aldrich, St. Louis, Mo.). Unless otherwise stated, cells were pretreated for 10 minutes with Bay-61-3606 (Santa Cruz Biotechnology, Inc., Dallas, Tex.; 1 μM), dasatinib (Santa Cruz Biotechnology, Inc., Dallas, Tex.; 1 μM), tofacitinib (Selleck Chemicals LLC, Houston, Tex.; 1 μM), anti-VpreB Fab (1 μM), 3AC (Echelon Biosciences, Inc., Salt Lake City, Utah), and/or recombinant galectin-1 (PreproTech, Inc., Rocky Hill, N.J.; 10 μM), +/− lactose.
LAB-TEK imaging chambers (ThermoFisher Scientific, Waltham, Mass.) were coated with poly-1-lysine hydrobromide (Sigma-Aldrich, St. Louis, Mo.) at 1 mg/ml in sterile water for 20 minutes at room temperature, followed by three washes. BCP-ALL cells were serum-starved in RPMI 1640 without FBS for two hours prior to being added to coated wells and incubated for 15 minutes at 37° C. QD-Fab-CD79b or QD-Fab-IgM were added at 100 pM in Tyrodes's solution (Sigma-Aldrich, St. Louis, Mo.) with 0.1% (w/v) BSA and 20 mM glucose for 10-15 minutes at 37° C.
All corresponding GPU single particle tracking and track elongation, squared displacement, mean square displacement, correlated motion, fiducial data acquisition and image registration and three-state hidden Markov Model used in this study have been described in detail previously (Low-Nam et al, 2011, Nat Struct Mol Biol 18:1244-1249).

[5] = system: patient #280 BCP-ALL blasts; test: flow cytometry apoptosis assay (Annexin-V / 7-AAD), patient #280 cells; assay type: cell-based, human; settings: patient #280 blasts, single agent, 24-hour culture (dasatinib 10 μM)
Protocol: Blockade of pre-BCR homotypic self-association can sensitize patient cells to vincristine. […] Blasts from patient #280 also were very sensitive to dasatinib as a single agent (80% 7-AAD/Annexin-V positive after 24-hour culture). Longer incubations were not feasible, since cells from this patient were 40% 7-AAD positive when incubated with no drug or in the presence of vincristine up to 5 ng/ml.
Leukemia cell apoptosis was measured based upon binding to Annexin-V-FITC (BioLegend, Inc., San Diego, Calif.) and loss of cell viability measured by 7-AAD labeling (BioLegend, Inc., San Diego, Calif.), according to manufacturer's procedures. For receptor-binding experiments, cells were incubated under saturating conditions for 1.5 hours on ice in PBS with anti-CD79b-APC antibody (BioLegend, Inc., San Diego, Calif.) or anti-VpreB-PE antibody (BioLegend, Inc., San Diego, Calif.). Flow results were calibrated using QUANTUM SIMPLY CELLULAR (Bangs Laboratories, Inc., Fishers, Ind.) beads with anti-mouse Fc antibody according to manufacturer's instruction. […] All flow cytometry data collection was conducted on the HYPERCYT platform (IntelliCyt Corp., Albuquerque, N. Mex.; Edwards et al., 2009, Methods Mol Biol 486:151-165) and analyzed with the FLOWJO Software Suite (FlowJo, LLC, Ashland, Oreg.).

pre-BCR on 697 cells [6] = biological target: T2, pre-BCR on 697 cells (Homo sapiens, UniProt P12018+P15814); test: fluorescence imaging of pre-BCR clustering by labeled galectin-1; assay type: cell-based; settings: Alexa 555-conjugated galectin-1 10 μM, within five minutes
T2 construct: endogenous in cells; host or cells: 697 (BCP-ALL cell line)
T2 sequence (P15814 38-213, one chain of several): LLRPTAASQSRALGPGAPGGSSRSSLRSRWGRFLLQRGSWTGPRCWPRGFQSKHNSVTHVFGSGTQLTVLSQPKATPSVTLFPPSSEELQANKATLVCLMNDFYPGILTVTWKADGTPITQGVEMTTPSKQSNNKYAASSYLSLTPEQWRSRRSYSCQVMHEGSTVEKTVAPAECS

Molecule	BCL6 expression [2]	accumulation of phospho-Syk (Syk phosphorylation) [3]	apoptosis in cells treated with vincristine over a range of doses (697 cells)	overall diffusion (mobility) of pre-BCR (pre-BCR on 697 cells [4])	other results
CC(C)CCC[C@@H](C)[C@H]1CC[C@H]2[C@@H]3CC[C@H]4C[C@H](N)CC[C@]4(C)[C@H]3CC[C@]12C [3AC, 3-a-aminocholestane]	completely repressed	slightly elevated	potentiate apoptosis		BCL6 levels [1]: marked decline
COc1ccc(-c2cc3nccn3c(Nc3ncccc3C(N)=O)n2)cc1OC [Bay-61-3606]			potentiate apoptosis	overall increased mobility	diminished accumulation of Syk PY352 ([3]; pervanadate-treated): approximately 20%
Cc1nc(Nc2ncc(C(=O)Nc3c(C)cccc3Cl)s2)cc(N2CCN(CCO)CC2)n1 [dasatinib]					7-AAD/Annexin-V positive [5]: 80%
C[C@@H]1CCN(C(=O)CC#N)C[C@@H]1N(C)c1ncnc2[nH]ccc12 [tofacitinib]	elevated levels	did not alter	potentiate apoptosis	not Jak (tofacitinib) results in a global increase	
CC[C@]1(O)C[C@H]2CN(CCc3c([nH]c4ccccc34)[C@@](C(=O)OC)(c3cc4c(cc3OC)N(C=O)[C@H]3[C@@](O)(C(=O)OC)[C@H](OC(C)=O)[C@]5(CC)C=CCN6CC[C@]43[C@@H]65)C2)C1 [vincristine]					apoptotic cells (697 cells; vincristine 10 ng/ml, with or without VpreB Fabs (5 μM)): 69.9%
galectin-1: recombinant human galectin-1, crosslinks pre-BCR via surrogate light chain				far less mobile	clustering of the pre-BCR (pre-BCR on 697 cells [6]): marked clustering of the pre-BCR; immobile fraction of pre-BCR (D<0.05 μm^2/sec) (pre-BCR on 697 cells [4]): A large fraction of pre-BCR become essentially immobile
